In paper PMC6410202, “Dual Action of the PN159/KLAL/MAP Peptide: Increase of Drug Penetration across Caco-2 Intestinal Barrier Model by Modulation of Tight Junctions and Plasma Membrane Permeability” (Pharmaceutics, 2019):

Legend:
[1] = Circular dichroism spectroscopy of the peptide; assay type: physicochemical; settings: CD
Experimental: Far-UV circular dichroism (CD) spectra of the peptides were recorded at 25°C temperature on a J-810 spectropolarimeter (JASCO International Co. Ltd., Tokyo, Japan). The CD spectra were measured between 260 nm and 185 nm with an optical pathlength of 1 mm, at a peptide concentration of 0.1 mg/mL in Milli-Q water diluted directly from powder. The bandwidth was 2 nm and data pitch 0.5 nm, the scan speed was set to 100 nm/min and the integration time was 1 sec. Ten spectra were accumulated and plotted. The data were analyzed by CDSSTR method. To test the thermostability of the peptide structure the CD spectra were recorded between 25 °C and 55 °C temperature with a ramp rate of 5 °C/min on a JASCO J-810 spectropolarimeter by using a Peltier sample holder. The CD spectra were measured immediately between 260 and 185 nm with an optical pathlength of 1 mm, the peptide concentration was 0.1 mg/mL in Milli-Q water. The bandwidth was 2 nm and data pitch 1 nm, the scan speed was set to 100 nm/min, and the integration time was 1 sec. Five spectra were accumulated and plotted.

claudin-1 = test system: claudin-1; design: method as in PMID 26869428; settings: affinity measurements; cited from earlier work
Caco-2 cell layers = test: Transepithelial electrical resistance (TEER) of Caco-2 cell layers; assay type: cell-based, human; settings: for TEER, % of the control value: PN159 10 μM
Experimental: For the measurement of barrier integrity Caco-2 cells were seeded onto culture inserts (Transwell 3460, polyester membrane, 0.4 µm pore size, Corning Costar) and cultured for three weeks. Transepithelial electrical resistance (TEER) reflects the tightness of the intercellular junctions. […]. Resistance of cell-free inserts (130 Ω × cm^2) was subtracted from the measured values. TEER values were measured before and right after permeability experiments). TEER values indicated the integrity and paracellular permeability of cell layers for ions. The TEER of Caco-2 monolayers was 1302 ± 49 Ω × cm^2 (mean ± SD; n = 46) after 3 weeks culturing. For the recovery experiment, after changing the 10 μM peptide solutions to culture medium, TEER was monitored for one day.

Caco-2 epithelial cells = test: Ethidium homodimer-1 staining, cell membrane integrity; assay type: cell-based, human; settings: PN159 1 to 10 μM, 24-h treatments
Experimental: Besides the junctional effects, changes in the cell membrane integrity were also examined by ethidium homodimer-1 (856.77 Da) staining of Caco-2 epithelial cells after 24-h treatments in the concentration range of 1 to 10 μM.
Figure 7 (A) Fluorescent staining of juntional protein zonula occludens-1 and double staining of cell nuclei in Caco-2 cells after 1-h treatment with PN159 peptide. Green color: immunostaining for ZO-1. Red color: staining by ethidium homodimer-1 (EH-1), indicating increased membrane permeability.Blue color: staining of all cell nuclei by H33342. Bar = 10 µm. (B) Confocal microscopy images of living Caco-2 epithelial cells incubated with Bodipy FL labeled PN159 peptide in different concentrations for 5 min at 37°C. Green color: BodipyFL-PN159 peptide. Blue color: staining of cell nuclei. Bar = 10 µm.

Caco-2 cells [2] = test: Immunostaining of junctional proteins and F-actin; assay type: cell-based, human; settings: 1 h
Experimental: Morphological changes in interepithelial junctions after treatment with different concentrations of CPPs (100 μM) and PN159 peptide (1, 3, 10, 30 and 100 μM) were followed by immunostaining for claudin-1 integral membrane tight junction protein, β-catenin and zonula occludens protein-1 (ZO-1) cytoplasmic linker proteins. F-actin was stained by fluorescently labeled phalloidin. Treatments lasted for 1 h. After peptide treatment cell layers were washed with PBS and fixed with a 1:1 mixture of ice cold acetone and methanol for 2 min. Cells were blocked with 3% bovine serum albumin in PBS and incubated with primary antibodies mouse anti-claudin-1 and -4, rabbit anti-ZO-1 and rabbit anti-β-catenin (Life Technologies, Carlsbad, CA, USA) overnight. Fluorescent Atto 647N-phalloidin (ATTO-TEC GmbH, Germany) lasted for 1 h. Incubation with Alexa Fluor-488-labeled anti-mouse and anti-rabbit secondary antibodies (Life Technologies, Invitrogen, USA) lasted for 1 h. Bis-benzimide dye (Hoechst 33342) was used to stain cell nuclei. After mounting (Fluoromount-G; Southern Biotech, Birmingham, AL, USA) the samples staining was visualized by a Leica TCS SP5 confocal laser scanning microscope (Leica Microsystems GmbH, Wetzlar, Germany) and Visitron spinning disk confocal system (Visitron Systems GmbH, Puchheim, Germany).

Caco-2 cells [3] = test: Cellular uptake of Bodipy FL labeled PN159, confocal microscopy; assay type: cell-based, human; settings: Bodipy FL labeled PN159, 10 µM, 5 min, claudin-4 immunostaining
Experimental: The Caco-2 cells were grown on glass bottomed petri dishes coated with collagen to visualize the cellular uptake of the Bodipy FL maleimide labeled (BODIPY FL N-(2-aminoethyl) maleimide, Thermo Fischer, Waltham, MA, USA) PN159 peptide. The cells were treated with peptide at concentrations of 1, 3 and 10 µM for 5 min. To stain the cell nuclei the H33342dye (1 μg/mL) was used before peptide treatment for 10 min. After peptide incubation the living cells were washed three times with Ringer–Hepes buffer supplemented with 1%fetal bovine serum (FBS) and examined immediately with a Visitron spinning disk confocal system.
In the case of the co-localization analysis the labeled PN159 peptide was used in 10 µM for 5 min. Then the cellular uptake cells were fixed and immunohistochemistry was performed for claudin-4. The samples were mounted and visualized by a Leica TCS SP5 confocal laser-scanning microscope.

[4] = test system: Pseudomonas aeruginosa (ATCC 27853); test: microbe, parasite or virus in culture; settings: Muller–Hinton broth, 18 h
Experimental: (§1) The MIC of PN159 on the 6 sensitive and resistant ESKAPE pathogenic strains was determined in cation-adjusted Muller–Hinton broth. […] Minimum inhibitory concentrations (MICs) were determined by using a standard serial broth dilution technique. Briefly, 11-step serial dilutions were prepared in 96-well microtiter plates with three biological replicates per strain. Pathogens were inoculated into each well at a density of 5×10^5 bacteria/mL, and the plates were incubated at 37 °C. Plates were shaken at 300 rpm during incubation for 18 h. Cell growth was monitored by measuring the optical density (OD600 value, Synergy 2 microplate reader BioTek Instruments Inc, Winooski, VT, USA). […] As reference compounds we tested the antimicrobial activity of three bactericidal drugs with different modes of action.

[5] = test system: Enterobacter cloacae spp. cloacae (ATCC 13047); test: microbe, parasite or virus in culture; settings: Muller–Hinton broth, 18 h
Experimental: as §1

SMILES: CC(C)C[C@H](NC(=O)[C@H](C)NC(=O)[C@H](CCCCN)NC(=O)[C@H](CC(C)C)NC(=O)[C@H](C)NC(=O)[C@H](CC(C)C)NC(=O)[C@H](CCCCN)NC(=O)[C@H](CC(C)C)NC(=O)[C@H](C)NC(=O)[C@H](CC(C)C)NC(=O)[C@@H](N)CCCCN)C(=O)N[C@@H](CCCCN)C(=O)N[C@@H](C)C(=O)N[C@@H](C)C(=O)N[C@@H](CC(C)C)C(=O)N[C@@H](CCCCN)C(=O)N[C@@H](CC(C)C)C(=O)N[C@@H](C)C(N)=O [PN159]
- Secondary structure, turns ([1]; 25 °C, 0.1 mg/mL in water): 24%
- Secondary structure, unordered structure ([1]; 25 °C, 0.1 mg/mL in water): 34%
- Secondary structure, α-helix ([1]; 25 °C, 0.1 mg/mL in water): 11%
- Secondary structure, β-sheet ([1]; 25 °C, 0.1 mg/mL in water): 31%
- Thermostability of secondary structure ([1]; between 25 and 55 °C): stable
- Binding (claudin-1): in the micromolar range
- TEER recovery (Caco-2 cell layers; 20 h after removal of PN159 (10 μM, 30 min)): complete recovery
- TEER, % of the control value (Caco-2 cell layers; 1-min treatment): 42%
- TEER, % of the control value (Caco-2 cell layers; 5 min): 16%
- TEER, % of the control value (Caco-2 cell layers; 15 min): 2.7%
- TEER, % of the control value (Caco-2 cell layers; 30 min): 1.4%
- Decrease in TEER (Caco-2 cell layers; PN159 10 and 30 μM, 1-h treatment): 80–90%
- Resistance of epithelial cell layers (TEER) (Caco-2 cell layers; all tested concentrations (1, 3, 10, 30 μM), 1-h treatment): significantly decreased the resistance
- Plasma membrane entry of ethidium homodimer-1 (Caco-2 epithelial cells): Only the highest PN159 concentration caused plasma membrane entry of the red fluorescent dye
- Junctional and cell morphology (claudin-1, ZO-1, β-catenin, F-actin) (Caco-2 cells [2]; PN159 1 μM): slight effect on cell morphology
- Junctional and cell morphology (claudin-1, ZO-1, β-catenin, F-actin) (Caco-2 cells [2]; PN159 10 μM): drastic change in actin cytoskeleton and epithelial junctional morphology
- Co-localization with claudin-4 (Caco-2 cells [3]): visible in the cytoplasm and also in the cell membrane at the level of intercellular junctions
- MIC [4]: 46.4 µM
- MIC [5]: 31.0 µM
